Reference: the supplement of paper PMC10307832

Key:
Assay in all cases: relative viability (nuclei count vs DMSO), 5 days (fraction); higher = more cells survive
NCI-H596 = tested on: NCI-H596
Procedure, shortened: (§1)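 After 5 days of treatment, lung cancer cells in 1536-well plates were fixed and stained in a single step (final 0.05% Triton X-100, 1% formaldehyde, 1 ug/ml Hoechst) and their nuclei counted on 4× images. Treatment had been applied by pin tool the day after seeding as one drug alone or as a fixed anchor-drug dose with five library-drug doses (not always all listed) in √10 steps. Relative viability is the nuclei count of treated wells divided by that of vehicle wells, and values are medians of duplicate plates.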

NCI-H322M = tested on: NCI-H322M
Procedure, shortened: as §1

NCI-H1651 = tested on: NCI-H1651
Procedure, shortened: as §1

NCI-H661 = tested on: NCI-H661
Procedure, shortened: as §1

LU99A = tested on: LU99A
Procedure, shortened: as §1

LCLC-97TM1 = tested on: LCLC-97TM1
Procedure, shortened: as §1

LXF-289 = tested on: LXF-289
Procedure, shortened: as §1

BEN = tested on: BEN
Procedure, shortened: as §1

LC-2-ad = tested on: LC-2-ad
Procedure, shortened: as §1

NCI-H1666 = tested on: NCI-H1666
Procedure, shortened: as §1

NCI-H1944 = tested on: NCI-H1944
Procedure, shortened: as §1

NCI-H2342 = tested on: NCI-H2342
Procedure, shortened: as §1

NCI-H358 = tested on: NCI-H358
Procedure, shortened: as §1

HCC-15 = tested on: HCC-15
Procedure, shortened: as §1

NCI-H838 = tested on: NCI-H838
Procedure, shortened: as §1

HCC-78 = tested on: HCC-78
Procedure, shortened: as §1

LK-2 = tested on: LK-2
Procedure, shortened: as §1

SK-MES-1 = tested on: SK-MES-1
Procedure, shortened: as §1

ChaGo-K-1 = tested on: ChaGo-K-1
Procedure, shortened: as §1

PC-3 [JPC-3] = tested on: PC-3 [JPC-3]
Procedure, shortened: as §1

NCI-H2087 = tested on: NCI-H2087
Procedure, shortened: as §1

NCI-H650 = tested on: NCI-H650
Procedure, shortened: as §1

UMC-11 = tested on: UMC-11
Procedure, shortened: as §1

For `NC(=O)Nc1cc(-c2cccc(F)c2)sc1C(=O)N[C@H]1CCCNC1` [AZD7762] + COc1cc2c(Oc3ccc(NC(=O)C4(C(=O)Nc5ccc(F)cc5)CC4)cc3F)ccnc2cc1OCCCN1CCOCC1 [Foretinib] (partner 0.25 µM), the relative viability (NCI-H596; first compound 0.01 µM) was 0.993, the relative viability (NCI-H596; first compound 0.03162 µM) was 1.04 and the relative viability (NCI-H596; first compound 0.1 µM) was 1.01. It also gave a relative viability (NCI-H596; first compound 0.3162 µM) of 0.923, a relative viability (NCI-H596; first compound 1 µM) of 0.744 and a relative viability (NCI-H322M; first compound 0.01 µM) of 0.979. For the same compound, the relative viability (NCI-H322M; first compound 0.03162 µM) was 1.09, the relative viability (NCI-H322M; first compound 0.1 µM) was 1.09 and the relative viability (NCI-H322M; first compound 0.3162 µM) was 0.601. For the same compound, the relative viability (NCI-H322M; first compound 1 µM) was 0.315, the relative viability (NCI-H1651; first compound 0.01 µM) was 0.912 and the relative viability (NCI-H1651; first compound 0.03162 µM) was 0.785. For the same compound, the relative viability (NCI-H1651; first compound 0.1 µM) was 0.693, the relative viability (NCI-H1651; first compound 0.3162 µM) was 0.573 and the relative viability (NCI-H1651; first compound 1 µM) was 0.186. For the same compound, the relative viability (NCI-H661; first compound 0.01 µM) was 1.08, the relative viability (NCI-H661; first compound 0.03162 µM) was 1.1 and the relative viability (NCI-H661; first compound 0.1 µM) was 1.12. For the same compound, the relative viability (NCI-H661; first compound 0.3162 µM) was 1.03, the relative viability (NCI-H661; first compound 1 µM) was 0.598 and the relative viability (LU99A; first compound 0.01 µM) was 0.798. The relative viability (LU99A; first compound 0.03162 µM) was 0.828, the relative viability (LU99A; first compound 0.1 µM) was 0.791 and the relative viability (LU99A; first compound 0.3162 µM) was 0.822. For the same compound, the relative viability (LU99A; first compound 1 µM) was 0.537, the relative viability (LCLC-97TM1; first compound 0.01 µM) was 0.891 and the relative viability (LCLC-97TM1; first compound 0.03162 µM) was 0.88. The relative viability (LCLC-97TM1; first compound 0.1 µM) was 1.02, the relative viability (LCLC-97TM1; first compound 0.3162 µM) was 0.95 and the relative viability (LCLC-97TM1; first compound 1 µM) was 0.948. For the same compound, the relative viability (LXF-289; first compound 0.01 µM) was 0.991, the relative viability (LXF-289; first compound 0.03162 µM) was 1.05 and the relative viability (LXF-289; first compound 0.1 µM) was 1.05. The relative viability (LXF-289; first compound 0.3162 µM) was 1.01, the relative viability (LXF-289; first compound 1 µM) was 1.08 and the relative viability (BEN; first compound 0.01 µM) was 0.714. The relative viability (BEN; first compound 0.03162 µM) was 0.747, the relative viability (BEN; first compound 0.1 µM) was 0.621 and the relative viability (BEN; first compound 0.3162 µM) was 0.507. The relative viability (BEN; first compound 1 µM) was 0.596, the relative viability (LC-2-ad; first compound 0.01 µM) was 1.15 and the relative viability (LC-2-ad; first compound 0.03162 µM) was 1.09. For the same compound, the relative viability (LC-2-ad; first compound 0.1 µM) was 1.07, the relative viability (LC-2-ad; first compound 0.3162 µM) was 1.18 and the relative viability (LC-2-ad; first compound 1 µM) was 0.756. It also gave a relative viability (NCI-H1666; first compound 0.01 µM) of 1.03, a relative viability (NCI-H1666; first compound 0.03162 µM) of 1.07 and a relative viability (NCI-H1666; first compound 0.1 µM) of 1.14. It also gave a relative viability (NCI-H1666; first compound 0.3162 µM) of 1.12, a relative viability (NCI-H1666; first compound 1 µM) of 0.849 and a relative viability (NCI-H1944; first compound 0.01 µM) of 0.907. It also gave a relative viability (NCI-H1944; first compound 0.03162 µM) of 0.975, a relative viability (NCI-H1944; first compound 0.1 µM) of 1.06 and a relative viability (NCI-H1944; first compound 0.3162 µM) of 1.08. The relative viability (NCI-H1944; first compound 1 µM) was 0.591, the relative viability (NCI-H2342; first compound 0.01 µM) was 0.992 and the relative viability (NCI-H2342; first compound 0.03162 µM) was 1.14. The relative viability (NCI-H2342; first compound 0.1 µM) was 1.09, the relative viability (NCI-H2342; first compound 0.3162 µM) was 1.1 and the relative viability (NCI-H2342; first compound 1 µM) was 1.25. For the same compound, the relative viability (NCI-H358; first compound 0.01 µM) was 0.532, the relative viability (NCI-H358; first compound 0.03162 µM) was 0.76 and the relative viability (NCI-H358; first compound 0.1 µM) was 0.628. It also gave a relative viability (NCI-H358; first compound 0.3162 µM) of 0.647, a relative viability (NCI-H358; first compound 1 µM) of 0.378 and a relative viability (HCC-15; first compound 0.01 µM) of 1.06. The relative viability (HCC-15; first compound 0.03162 µM) was 0.995, the relative viability (HCC-15; first compound 0.1 µM) was 0.993 and the relative viability (HCC-15; first compound 0.3162 µM) was 1.06. It also gave a relative viability (HCC-15; first compound 1 µM) of 0.983, a relative viability (NCI-H838; first compound 0.01 µM) of 1.1 and a relative viability (NCI-H838; first compound 0.03162 µM) of 1.07. For the same compound, the relative viability (NCI-H838; first compound 0.1 µM) was 1.04, the relative viability (NCI-H838; first compound 0.3162 µM) was 0.992 and the relative viability (NCI-H838; first compound 1 µM) was 0.553. For the same compound, the relative viability (HCC-78; first compound 0.01 µM) was 0.619, the relative viability (HCC-78; first compound 0.03162 µM) was 0.611 and the relative viability (HCC-78; first compound 0.1 µM) was 0.589. It also gave a relative viability (HCC-78; first compound 0.3162 µM) of 0.682, a relative viability (HCC-78; first compound 1 µM) of 0.578 and a relative viability (LK-2; first compound 0.01 µM) of 1.38. The relative viability (LK-2; first compound 0.03162 µM) was 1.34, the relative viability (LK-2; first compound 0.1 µM) was 1.11 and the relative viability (LK-2; first compound 0.3162 µM) was 0.864. The relative viability (LK-2; first compound 1 µM) was 0.722, the relative viability (SK-MES-1; first compound 0.01 µM) was 0.83 and the relative viability (SK-MES-1; first compound 0.03162 µM) was 0.973. It also gave a relative viability (SK-MES-1; first compound 0.1 µM) of 1.02, a relative viability (SK-MES-1; first compound 0.3162 µM) of 0.903 and a relative viability (SK-MES-1; first compound 1 µM) of 0.528. The relative viability (ChaGo-K-1; first compound 0.01 µM) was 0.924, the relative viability (ChaGo-K-1; first compound 0.03162 µM) was 0.937 and the relative viability (ChaGo-K-1; first compound 0.1 µM) was 1.02. For the same compound, the relative viability (ChaGo-K-1; first compound 0.3162 µM) was 0.899, the relative viability (ChaGo-K-1; first compound 1 µM) was 0.976 and the relative viability (PC-3 [JPC-3]; first compound 0.01 µM) was 1.06. It also gave a relative viability (PC-3 [JPC-3]; first compound 0.03162 µM) of 1.06, a relative viability (PC-3 [JPC-3]; first compound 0.1 µM) of 1.04 and a relative viability (PC-3 [JPC-3]; first compound 0.3162 µM) of 1.13. The relative viability (PC-3 [JPC-3]; first compound 1 µM) was 1.02, the relative viability (NCI-H2087; first compound 0.01 µM) was 1.28 and the relative viability (NCI-H2087; first compound 0.03162 µM) was 1.12. The relative viability (NCI-H2087; first compound 0.1 µM) was 1.34, the relative viability (NCI-H2087; first compound 0.3162 µM) was 1.32 and the relative viability (NCI-H2087; first compound 1 µM) was 1.29. It also gave a relative viability (NCI-H650; first compound 0.01 µM) of 1.13, a relative viability (NCI-H650; first compound 0.03162 µM) of 0.991 and a relative viability (NCI-H650; first compound 0.1 µM) of 1.03. For the same compound, the relative viability (NCI-H650; first compound 0.3162 µM) was 1.03, the relative viability (NCI-H650; first compound 1 µM) was 1.05 and the relative viability (UMC-11; first compound 0.01 µM) was 1.04. The relative viability (UMC-11; first compound 0.03162 µM) was 1.1, the relative viability (UMC-11; first compound 0.1 µM) was 1.11 and the relative viability (UMC-11; first compound 0.3162 µM) was 0.765. For the same compound, the relative viability (UMC-11; first compound 1 µM) was 0.384.
